The source of these data is patent publication US7514455B2, “Inhibitors against complex II of electron transport system” (The Kitasato Institute, priority 2002, dated 2009).

What all share (format): biochemical
The target in test [1] is T1, bovine heart complex II (succinate-ubiquinone oxidoreductase) (Bos taurus, UniProt P35720+Q3T189+Q95123).
T1 construct: of the bovine heart, mitochondria prepared according to the method of S. Takamiya et al; from tissue; host or cells: bovine heart mitochondria
Put plainly: Inhibition of succinate dehydrogenase activity of bovine heart complex II (DCIP reduction).
Description: With regard to the complex II (succinate-ubiquinone oxidoreductase) of the bovine heart, mitochondria prepared according to the method of S. Takamiya et al. (Developmental changes in the respiratory chain of Ascaris mitochondria, Biochim. Biophys. Acta, 1141, 65-71, 1993) were used. Succinate dehydrogenase activity of the complex II was measured by changes of maximum absorption, which was specific to the electron acceptor (DCIP), from oxidized form of 2,6-dichlorophenolindophenol (DCIP, Sigma Inc.) to reduced form with the addition of succinate.
With regard to the complex II of the bovine heart, mitochondria prepared according to the same method described in the referential example 1 was used. Succinate dehydrogenase activity of the complex II was measured by changes of maximum absorption, which was specific to the electron acceptor (DCIP), from oxidized form of DCIP to reduced form with the addition of succinate. […] Reaction rate was measured by that the formation rate of reduced form of DCIP (amM^−1 1 cm^−1: 21) which accepted electron from succinate was measured at absorption changes of 600 nm. Activity was indicated by molar numbers of DCIP reduced per minute. Potassium cyanide, final concentration of 10 mM, was added due to necessity for prevention of leakage of reduction activity by inhibiting terminal oxidase.
With regard to the complex II (succinate-ubiquinone oxidoreductase) of the bovine heart, mitochondria prepared according to the same method described in the referential example 1 was used. Succinate dehydrogenase activity of the complex II was measured by changes of maximum absorption, which was specific to the electron acceptor (DCIP), from oxidized form of DCIP to reduced form with the addition of succinate. […] Reaction rate was measured by that the formation rate of reduced form of DCIP (amM^−1 1 cm^−1: 21) which accepted electron from succinate was measured at absorption changes of 600 nm. Activity was indicated by molar numbers of DCIP reduced per minute. Potassium cyanide, final concentration of 10 mM, was added due to necessity for prevention of leakage of reduction activity by inhibiting terminal oxidase.
With regard to the complex II of the bovine heart, mitochondria prepared according to the same method described in the referential example 1 was used. Succinate dehydrogenase activity of the complex II was measured by changes of maximum absorption, which was specific to the electron acceptor (DCIP), from oxidized form of DCIP to reduced form with the addition of succinate.

The target in a further test is T2, rat liver complex II (Rattus norvegicus, UniProt P21913+Q641Z9+Q6PCT8).
T2 construct: from tissue; host or cells: rat liver mitochondria
Put plainly: Inhibition of succinate dehydrogenase activity of rat liver complex II (DCIP reduction). On the procedure:
(§1) With regard to the complex II of the rat liver, mitochondria prepared according to the same method described in the referential example 1 was used. Succinate dehydrogenase activity of the complex II was measured by changes of maximum absorption, which was specific to the electron acceptor (DCIP), from oxidized form of DCIP to reduced form with the addition of succinate. Namely, ubiquinone-2 and DCIP were added to the level of 100 ìM and 70 ìM, respectively, into 50 mM phosphate buffer (pH 7.5); atpenin A4 was added therein; further the complex II was added thereto; then potassium succinate with final concentration of 10 mM was added; and the reaction was started at 25° C. Reaction rate was measured by that the formation rate of reduced form of DCIP (amM^−1 1 cm^−1: 21) which accepted electron from succinate was measured at absorption changes of 600 nm. Activity was indicated by molar numbers of DCIP reduced per minute. Potassium cyanide, final concentration of 10 mM, was added due to necessity for prevention of leakage of reduction activity by inhibiting terminal oxidase.
(§2) With regard to the complex II of the rat liver, mitochondria prepared according to the same method described in the referential example 1 was used. Succinate dehydrogenase activity of the complex II was measured by changes of maximum absorption, which was specific to the electron acceptor (DCIP), from oxidized form of DCIP to reduced form with the addition of succinate. […] Reaction rate was measured by that the formation rate of reduced form of DCIP (amM^−1 1 cm^−1: 21) which accepted electron from succinate was measured at absorption changes of 600 nm. […]
as §2
With regard to the complex II of the rat liver, mitochondria prepared according to the same method described in the referential example 1 was used. Succinate dehydrogenase activity of the complex II was measured by changes of maximum absorption, which was specific to the electron acceptor (DCIP), from oxidized form of DCIP to reduced form with the addition of succinate. […]

A further test has as its target T3, Ascaris suum complex II (Ascaris suum, UniProt O44074+P92506+P92507).
T3 construct: the purified complex II prepared according to the method of F. Saruta et al; from tissue; complex II purified by the method of Saruta et al. 1995
As to the kind of experiment: Inhibition of succinate dehydrogenase activity of Ascaris suum complex II (DCIP reduction). On the procedure: With regard to the complex II of the Ascaris suum, the purified complex II prepared according to the method of F. Saruta et al. [Stage-specific Isoforms of Complex II (Succinate-Ubiquinone Oxidoreductase) in Mitochondria from the Parasitic Nematode, Ascaris suum: J. Biol. Chem. 270, 928-932, 1995] was used. Succinate dehydrogenase activity of the complex II was measured by changes of maximum absorption, which was specific to the electron acceptor (DCIP), from oxidized form of DCIP to reduced form with the addition of succinate.
as §1, with “Namely,” for “With regard to the complex II of the rat liver, mitochondria prepared according to the same method described in the referential example 1 was used. Succinate dehydrogenase activity of the complex II was measured by changes of maximum absorption, which was specific to the electron acceptor (DCIP), from oxidized form of DCIP to reduced form with the addition of succinate. Namely,”
(§3) With regard to the complex II of the Ascaris suum, the purified complex II prepared according to the same method of example 3 was used. Succinate dehydrogenase activity of the complex II was measured by changes of maximum absorption, which was specific to the electron acceptor (DCIP), from oxidized form of DCIP to reduced form with the addition of succinate. […] Reaction rate was measured by that the formation rate of reduced form of DCIP (amM^−1 1 cm^−1: 21) which accepted electron from succinate was measured at absorption changes of 600 nm. […]
as §3
With regard to the complex II of the Ascaris suum, the purified complex II prepared according to the same method of example 3 was used. Succinate dehydrogenase activity of the complex II was measured by changes of maximum absorption, which was specific to the electron acceptor (DCIP), from oxidized form of DCIP to reduced form with the addition of succinate. […]

Where [2] appears, read: bovine heart mitochondria, ubiquinone-2, DCIP, 10 mM succinate, pH 7.5, 25° C., read-out: 50% inhibitory concentration of the complex II (IC50), Bovine heart.
The mark [3] stands for this setting: rat liver mitochondria, ubiquinone-2, DCIP, 10 mM succinate, pH 7.5, 25° C., read-out: 50% inhibitory concentration of the complex II (IC50), Rat liver.
The mark [4] stands for this setting: purified Ascaris suum complex II, ubiquinone-2, DCIP, 10 mM succinate, pH 7.5, 25° C., read-out: 50% inhibitory concentration of the complex II (IC50), Ascaris suum.

Read-outs that look alike come from different tables or passages of the source.

T1 sequence (P31039 44-665 partner): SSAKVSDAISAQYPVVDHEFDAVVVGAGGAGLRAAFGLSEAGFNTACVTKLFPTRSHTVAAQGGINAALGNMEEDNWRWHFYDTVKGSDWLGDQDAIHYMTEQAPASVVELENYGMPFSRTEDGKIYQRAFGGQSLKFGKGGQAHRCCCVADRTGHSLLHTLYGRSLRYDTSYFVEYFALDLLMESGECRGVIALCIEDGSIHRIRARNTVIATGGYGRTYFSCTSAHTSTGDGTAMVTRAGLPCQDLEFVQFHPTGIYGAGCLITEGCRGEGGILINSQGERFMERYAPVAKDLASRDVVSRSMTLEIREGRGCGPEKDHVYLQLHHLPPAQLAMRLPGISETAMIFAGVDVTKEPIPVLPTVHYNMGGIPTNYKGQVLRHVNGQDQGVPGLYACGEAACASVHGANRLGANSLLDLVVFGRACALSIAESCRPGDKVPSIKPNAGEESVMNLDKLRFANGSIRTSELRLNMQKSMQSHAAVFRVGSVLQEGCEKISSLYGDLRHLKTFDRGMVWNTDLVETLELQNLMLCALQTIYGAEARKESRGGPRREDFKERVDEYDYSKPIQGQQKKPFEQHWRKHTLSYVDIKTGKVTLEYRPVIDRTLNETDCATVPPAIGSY
T1 sequence (Q3T189 29-280): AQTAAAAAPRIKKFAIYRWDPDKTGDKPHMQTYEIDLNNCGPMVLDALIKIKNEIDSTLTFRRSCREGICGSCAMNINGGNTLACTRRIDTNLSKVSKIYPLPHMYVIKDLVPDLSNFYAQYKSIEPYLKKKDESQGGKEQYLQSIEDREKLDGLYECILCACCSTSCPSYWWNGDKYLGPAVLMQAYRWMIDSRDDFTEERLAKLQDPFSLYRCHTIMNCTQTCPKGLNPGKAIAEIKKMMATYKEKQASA
T1 sequence (P35720 30-169): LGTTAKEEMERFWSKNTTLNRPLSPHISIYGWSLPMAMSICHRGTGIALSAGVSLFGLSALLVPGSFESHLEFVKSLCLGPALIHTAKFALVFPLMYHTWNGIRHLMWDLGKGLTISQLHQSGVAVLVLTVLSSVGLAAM
T1 sequence (Q95123 56-158): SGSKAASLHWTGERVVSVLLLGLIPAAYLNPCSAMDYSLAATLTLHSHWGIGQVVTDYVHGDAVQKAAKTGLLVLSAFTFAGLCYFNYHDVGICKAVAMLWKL
T2 sequence (Q920L2 35-656 partner): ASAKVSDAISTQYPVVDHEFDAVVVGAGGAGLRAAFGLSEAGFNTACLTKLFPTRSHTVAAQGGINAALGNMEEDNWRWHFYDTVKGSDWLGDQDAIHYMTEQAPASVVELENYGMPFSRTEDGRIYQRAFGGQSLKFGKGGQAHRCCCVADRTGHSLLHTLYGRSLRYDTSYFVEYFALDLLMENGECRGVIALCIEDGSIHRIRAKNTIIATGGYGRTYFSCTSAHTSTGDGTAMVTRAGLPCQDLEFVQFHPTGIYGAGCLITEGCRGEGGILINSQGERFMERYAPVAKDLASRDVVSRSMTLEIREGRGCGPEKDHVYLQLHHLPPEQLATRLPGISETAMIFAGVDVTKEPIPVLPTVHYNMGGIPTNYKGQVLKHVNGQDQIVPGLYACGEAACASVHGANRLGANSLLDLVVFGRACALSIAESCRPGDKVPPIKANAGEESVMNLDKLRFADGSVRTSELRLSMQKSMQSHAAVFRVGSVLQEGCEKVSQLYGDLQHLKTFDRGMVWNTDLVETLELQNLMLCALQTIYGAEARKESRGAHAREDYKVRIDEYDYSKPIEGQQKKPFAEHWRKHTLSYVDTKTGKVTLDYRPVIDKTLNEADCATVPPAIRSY
T2 sequence (P21913 31-282): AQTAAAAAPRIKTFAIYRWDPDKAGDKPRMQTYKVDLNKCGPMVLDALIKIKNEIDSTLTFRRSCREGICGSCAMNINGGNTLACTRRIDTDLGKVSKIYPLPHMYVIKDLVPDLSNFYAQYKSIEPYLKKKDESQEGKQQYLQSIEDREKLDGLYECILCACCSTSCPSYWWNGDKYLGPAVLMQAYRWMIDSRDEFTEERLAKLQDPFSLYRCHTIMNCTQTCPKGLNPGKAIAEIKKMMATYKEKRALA
T2 sequence (Q641Z9 30-169 limits assumed): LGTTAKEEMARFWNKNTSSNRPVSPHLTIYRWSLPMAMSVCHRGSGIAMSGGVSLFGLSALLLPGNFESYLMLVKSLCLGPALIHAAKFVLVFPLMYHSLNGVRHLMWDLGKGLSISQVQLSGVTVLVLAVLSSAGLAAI
T2 sequence (Q6PCT8 57-159): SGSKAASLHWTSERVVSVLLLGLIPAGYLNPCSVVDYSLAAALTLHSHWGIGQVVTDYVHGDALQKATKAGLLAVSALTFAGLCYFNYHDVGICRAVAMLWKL
T3 sequence (Q33862 19-645): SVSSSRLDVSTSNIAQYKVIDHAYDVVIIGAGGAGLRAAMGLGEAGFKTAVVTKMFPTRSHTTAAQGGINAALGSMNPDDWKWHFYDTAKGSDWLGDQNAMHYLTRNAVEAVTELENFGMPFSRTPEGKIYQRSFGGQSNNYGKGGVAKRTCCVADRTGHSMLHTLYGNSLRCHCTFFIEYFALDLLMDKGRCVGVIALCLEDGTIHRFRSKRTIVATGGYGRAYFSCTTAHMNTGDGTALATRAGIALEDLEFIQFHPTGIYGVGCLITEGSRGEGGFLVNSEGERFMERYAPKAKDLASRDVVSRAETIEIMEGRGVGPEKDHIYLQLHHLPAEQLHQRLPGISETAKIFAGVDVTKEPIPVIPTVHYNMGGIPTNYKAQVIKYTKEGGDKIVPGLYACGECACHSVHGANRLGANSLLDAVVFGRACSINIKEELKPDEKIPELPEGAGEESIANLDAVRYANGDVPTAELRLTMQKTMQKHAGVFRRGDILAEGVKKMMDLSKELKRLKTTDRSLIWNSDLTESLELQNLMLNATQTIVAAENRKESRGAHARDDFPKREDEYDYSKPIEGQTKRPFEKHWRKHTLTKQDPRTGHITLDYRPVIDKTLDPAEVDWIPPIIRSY
T3 sequence (P92506 32-188): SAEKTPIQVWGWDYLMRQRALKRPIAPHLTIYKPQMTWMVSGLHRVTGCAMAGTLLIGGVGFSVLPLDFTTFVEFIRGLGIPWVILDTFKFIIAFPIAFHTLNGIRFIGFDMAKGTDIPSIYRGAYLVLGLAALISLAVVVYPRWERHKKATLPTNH
T3 sequence (O44074 22-282): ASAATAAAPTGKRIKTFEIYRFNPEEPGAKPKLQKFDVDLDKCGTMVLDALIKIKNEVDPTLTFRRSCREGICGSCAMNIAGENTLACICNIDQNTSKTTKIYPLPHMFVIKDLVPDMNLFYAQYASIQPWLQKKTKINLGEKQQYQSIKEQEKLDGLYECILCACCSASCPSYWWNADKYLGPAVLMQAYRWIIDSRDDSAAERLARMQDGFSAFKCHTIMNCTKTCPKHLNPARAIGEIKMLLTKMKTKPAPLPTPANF
T3 sequence (P92507 26-156): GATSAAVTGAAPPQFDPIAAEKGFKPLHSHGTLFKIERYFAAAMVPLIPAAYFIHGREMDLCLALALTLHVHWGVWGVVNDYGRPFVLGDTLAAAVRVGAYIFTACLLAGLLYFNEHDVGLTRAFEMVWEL

On to `COc1nc(O)c(C(=O)C(C)CC(C)C(C)Cl)c(O)c1OC` (centres unmarked) [Atpenin A4, atpenin A4], for which the IC50 in test [1] (setting [2]) worked out at 11 nM; on rat liver complex II (setting [3]), 24 nM; on Ascaris suum complex II (setting [4]) it was 220 nM.
For `COc1[nH]c(=O)c(C(=O)C(C)CC(C)C(Cl)CCl)c(O)c1OC` (centres unmarked) [Atpenin A5, atpenin A5], the values for the IC50 (in test [1]; at rat liver complex II; on Ascaris suum complex II) were 3.6 nM, 3.7 nM and 32 nM, respectively.
`CCC(C)CC(C)C(=O)c1c(O)nc(OC)c(OC)c1O` (centres unmarked) [Atpenin B, atpenin B]: the IC50 in test [1] (setting [2]) came out at 10 nM; on rat liver complex II (setting [3]) it was 20 nM; at Ascaris suum complex II (setting [4]), 50 nM.
For `O=C(CC(=O)C(F)(F)F)c1cccs1` [Thenoyltrifluoro Aceton, thenoyltrifluoroacetone, reference compound], the IC50 in test [1] (setting [2]) came out at 5800 nM.
For `C/C=C/CC(C)C(=O)c1c(O)c(OC)c(OC)[nH]c1=O` (centres unmarked) [Harzianopyridone, harzianopyridone], the IC50 worked out at 17 nM in test [1] (setting [2]), 200 nM at rat liver complex II (setting [3]) and 2000 nM at Ascaris suum complex II (setting [4]).
As for `CC1=C(C(=O)Nc2ccccc2)SCCO1` [Carboxin, carboxin, reference compound], the IC50 in test [1] (setting [2]) was 1100 nM.
